Test results published in patent US5006515A, “Pharmaceuticals, phosphorus-containing 2-isoxazolines and isoxazoles contained therein” (Hoechst Aktiengesellschaft, priority 1987, dated 1991).

Key:
B16 melanoma = assay: Stimulation of defenses against B16 melanoma in the mouse; type: in vivo, female C57B1/6 mice; conditions: intervals of 2 days, day 4 to day 100
Excerpt: A primary tumor was generated with 2×10^5 live B16 melanoma cells in female C57B1/6 mice with a body weight of 18 to 20 g and, after having grown to a diameter of 0.65 cm, was removed surgically. The animals subsequently died of metastases in the lung. The investigation now was of whether the mean survival time after removal of the primary tumor, that is to say the time at which 50% of the animals are still alive, can prolonged by intraperitoneal treatment with the compounds of the formula I. For this purpose, after amputation of the primary tumor, the mice were divided into groups each containing 10 animals and were treated with i.p. doses each of 1.25 or 2.5 mg/kg test substance at intervals of 2 days from day 4 to day 100. The animals in the control group received merely the pure vehicle PBS (physiological saline) in the same therapeutic regimen.

Staphylococcus aureus = Staphylococcus aureus infection of immunosuppressed mice; type: in vivo, female B6D2F1 mice; conditions: up to day 45
Excerpt: It is known that distinct immunosuppression can be induced in experimental animals by multiple administration of a cytostatic and is expressed by an increased susceptibility to infection with a drastic rise in mortality. […] Another group of infected animals which had not, however, been immunosuppressed by pretreatment with ADM was included as negative control. The immunosuppressed animals in the three active product groups received, on 4 consecutive days starting one day before the infection, the test substance, with intraperitoneal doses each of 0.1, 1 or 10 mg/kg being administered. Each experimental group comprised 20 animals.

peritoneal macrophages = assay: Stimulation of the release of lysosomal enzymes from peritoneal macrophages (exocytosis); conditions: for Enzyme activity N-Ac-Glu / Enzyme activity β-Gal / Enzyme activity β-Glu: single dose
[1] = system: DTH reaction to sheep erythrocytes; assay: Delayed-type hypersensitivity (DTH) reaction to sheep erythrocytes; type: in vivo, female NMRI mice
Experimental: Groups each comprising 5 female NMRI mice with a body weight of 18 to 20 g were formed, and each animal was given 10^6 or 10^9 sheep red blood cells intravenously. Sheep erythrocytes are regarded in immunology as a standard antigen with which it is possible to check cellular and humoral immunoreactivity, especially the functioning of the T-cell-dependent component of the immune system, the so-called T-helper cells. The test substances were administered, in intraperitoneal doses of 5 to 100 mg/kg in physiological saline, at the same time as the antigen. After 5 days, each animal was given an injection of 2×10^8 sheep erythrocytes into the footpad. 24 hours later, the swelling of the foot was measured. The foot swelling is induced by a skin reaction of the delayed type (DTH reaction) and, as is known to those skilled in the art, is a measure of the cellular immune response (J. Immunol. 101 (1968), 830-845). The test results obtained with the product of Example 34, by way of example, are compiled in Table 7 and illustrate that the compounds of the formula I--administered prophylactically--are able to increase the cellular immune response after immunization with the antigen by stimulation of the T-cell system, with the stimulant action reaching its optimum in this experiment at a dose of 25 mg/kg.

aminopeptidase B = aminopeptidase B (Homo sapiens, UniProt Q9H4A4); assay: Inhibition of aminopeptidase B; type: biochemical; conditions: substrate L-lysine 2-naphthylamide, room temperature; read-out: Aminopeptidase B IC50 (converted)
Chain of aminopeptidase B (Q9H4A4 whole entry, species assumed): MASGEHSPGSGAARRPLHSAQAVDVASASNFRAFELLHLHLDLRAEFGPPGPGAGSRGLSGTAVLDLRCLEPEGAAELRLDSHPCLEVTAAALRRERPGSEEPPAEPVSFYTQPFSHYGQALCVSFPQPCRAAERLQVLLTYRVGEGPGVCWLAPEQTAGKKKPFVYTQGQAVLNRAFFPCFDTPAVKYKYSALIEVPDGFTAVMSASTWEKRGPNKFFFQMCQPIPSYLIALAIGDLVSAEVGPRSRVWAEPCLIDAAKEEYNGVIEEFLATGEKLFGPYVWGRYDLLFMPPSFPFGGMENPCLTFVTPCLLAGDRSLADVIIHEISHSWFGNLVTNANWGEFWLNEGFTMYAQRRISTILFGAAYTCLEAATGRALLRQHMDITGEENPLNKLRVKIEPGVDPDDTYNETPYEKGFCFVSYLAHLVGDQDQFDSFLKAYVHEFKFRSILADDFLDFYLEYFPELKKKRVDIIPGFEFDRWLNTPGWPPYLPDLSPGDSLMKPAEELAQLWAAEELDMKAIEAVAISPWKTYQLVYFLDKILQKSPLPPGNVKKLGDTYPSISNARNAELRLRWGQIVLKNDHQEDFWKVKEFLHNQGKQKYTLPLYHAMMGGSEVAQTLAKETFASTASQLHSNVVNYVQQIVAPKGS
Experimental: The activity of the enzyme aminopeptidase B was determined photometrically using the substrate L-lysine 2-naphthylamide at room temperature. […] In the same way, the inhibition of leucine aminopeptidase was investigated using L-leucine 4-nitroanilide as enzyme substrate. The IC50 values are compiled in Table 6.

Acute toxicity = assay: Acute toxicity; design: species or system mice; conditions: mouse, in vivo, iv, single dose, mortality within 7 days
Experimental: The LD50 values were determined by the standard method via the mortality occurring within 7 days in NMRI (Naval Medical Research Institute) mice (6 animals per dose) after a single intraperitoneal (i.p.) or intravenous (i.v.) dose.

active Arthus reaction = assay: Active Arthus reaction in the rat; type: in vivo, Sprague-Dawley rats; conditions: Rattus norvegicus, po, 4 h, oral dose 35 mg/kg, 4 h after ovalbumin challenge; read-out: Active Arthus reaction % change
Experimental: The experimental animals used were female and male Sprague-Dawley rats with a body weight between 80 and 100 g which received subcutaneous injections into the tail-head of 0.5 ml of an emulsion of pertussis vaccine and ovalbumin in liquid paraffin. After two weeks, the rats were divided into groups each of 8 animals. 24 hours and 1 hour before induction of the Arthus reaction by injection of 0.1 ml of a 0.4% strength ovalbumin solution into the right hind paw, the particular test substance or the pure vehicle (positive control) was administered orally, sodium chloride solution was injected into the left paw. One group of unsensitized animals (negative control group) was likewise treated with ovalbumin in order to be able to rule out nonspecific reactions to the protein. The parameter used for measuring the action of the product was the percentage change in the increase in paw volume compared with that in the control group which was sensitized but untreated (positive control) 4 hours after ovalbumin challenge, when the swelling had reached its maximum.

O=P(O)(O)C1CC(c2ccccc2)=NO1 (racemic) [Example 34, 3-Phenyl-2-isoxazolin-5-ylphosphonic acid]
% survival after 100 days (B16 melanoma; 1.25 mg/kg i.p.): 20% | Mean survival time (B16 melanoma; 1.25 mg/kg i.p.): 41 days | % survival after 100 days (B16 melanoma; 2.50 mg/kg i.p.): 30% | Mean survival time (B16 melanoma; 2.50 mg/kg i.p.): 43 days | Mortality (Staphylococcus aureus; 0.1 mg/kg 4 × i.p.): 5/20 | Mortality (Staphylococcus aureus; 1.0 mg/kg 4 × i.p.): 8/20 | Mortality (Staphylococcus aureus; 10.0 mg/kg 4 × i.p.): 8/20 | Enzyme activity N-Ac-Glu (peritoneal macrophages; 5 mg/kg i.p.): 2607 mU/ml | Enzyme activity β-Gal (peritoneal macrophages; 5 mg/kg i.p.): 2357 mU/ml | Enzyme activity β-Glu (peritoneal macrophages; 5 mg/kg i.p.): 1197 mU/ml | Enzyme activity N-Ac-Glu (peritoneal macrophages; 5 mg/kg p.o.): 2071 mU/ml | Enzyme activity β-Gal (peritoneal macrophages; 5 mg/kg p.o.): 2216 mU/ml | Enzyme activity β-Glu (peritoneal macrophages; 5 mg/kg p.o.): 973 mU/ml | Enzyme activity N-Ac-Glu (peritoneal macrophages; 10 mg/kg i.p.): 4822 mU/ml | Enzyme activity β-Gal (peritoneal macrophages; 10 mg/kg i.p.): 3956 mU/ml | Enzyme activity β-Glu (peritoneal macrophages; 10 mg/kg i.p.): 1542 mU/ml | Enzyme activity N-Ac-Glu (peritoneal macrophages; 10 mg/kg p.o.): 4283 mU/ml | Enzyme activity β-Gal (peritoneal macrophages; 10 mg/kg p.o.): 3513 mU/ml | Enzyme activity β-Glu (peritoneal macrophages; 10 mg/kg p.o.): 1393 mU/ml | Enzyme activity N-Ac-Glu (peritoneal macrophages; 20 mg/kg i.p.): 6812 mU/ml | Enzyme activity β-Gal (peritoneal macrophages; 20 mg/kg i.p.): 6918 mU/ml | Enzyme activity β-Glu (peritoneal macrophages; 20 mg/kg i.p.): 2067 mU/ml | Enzyme activity N-Ac-Glu (peritoneal macrophages; 20 mg/kg p.o.): 6128 mU/ml | Enzyme activity β-Gal (peritoneal macrophages; 20 mg/kg p.o.): 6011 mU/ml | Enzyme activity β-Glu (peritoneal macrophages; 20 mg/kg p.o.): 1979 mU/ml | Enzyme activity N-Ac-Glu (peritoneal macrophages; 40 mg/kg i.p.): 9281 mU/ml | Enzyme activity β-Gal (peritoneal macrophages; 40 mg/kg i.p.): 9318 mU/ml | Enzyme activity β-Glu (peritoneal macrophages; 40 mg/kg i.p.): 2547 mU/ml | Enzyme activity N-Ac-Glu (peritoneal macrophages; 40 mg/kg p.o.): 8432 mU/ml | Enzyme activity β-Gal (peritoneal macrophages; 40 mg/kg p.o.): 9262 mU/ml | Enzyme activity β-Glu (peritoneal macrophages; 40 mg/kg p.o.): 2286 mU/ml | release of acid hydrolases, in words (peritoneal macrophages; i.p. or oral): increased as a function of the dose | % Foot swelling after immunization ([1]; 10^6 erythrocytes, 5.0 mg/kg 1x i.p.): 25.3 ± 5.8% | % Foot swelling after immunization ([1]; 10^6 erythrocytes, 10.0 mg/kg 1x i.p.): 28.9 ± 7.7% | % Foot swelling after immunization ([1]; 10^6 erythrocytes, 12.5 mg/kg 1x i.p.): 29.9 ± 3.5% | % Foot swelling after immunization ([1]; 10^6 erythrocytes, 20.0 mg/kg 1x i.p.): 32.5 ± 3.0% | % Foot swelling after immunization ([1]; 10^6 erythrocytes, 25.0 mg/kg 1x i.p.): 33.7 ± 6.6% | % Foot swelling after immunization ([1]; 10^6 erythrocytes, 40.0 mg/kg 1x i.p.): 29.7 ± 4.7% | % Foot swelling after immunization ([1]; 10^6 erythrocytes, 50.0 mg/kg 1x i.p.): 29.2 ± 6.9% | % Foot swelling after immunization ([1]; 10^6 erythrocytes, 100.0 mg/kg 1x i.p.): 27.3 ± 4.6% | % Foot swelling after immunization ([1]; 10^9 erythrocytes, 5.0 mg/kg 1x i.p.): 22.8 ± 3.5% | % Foot swelling after immunization ([1]; 10^9 erythrocytes, 10.0 mg/kg 1x i.p.): 24.1 ± 5.7% | % Foot swelling after immunization ([1]; 10^9 erythrocytes, 12.5 mg/kg 1x i.p.): 26.1 ± 8.9% | % Foot swelling after immunization ([1]; 10^9 erythrocytes, 20.0 mg/kg 1x i.p.): 30.5 ± 6.5% | % Foot swelling after immunization ([1]; 10^9 erythrocytes, 25.0 mg/kg 1x i.p.): 34.1 ± 7.4% | % Foot swelling after immunization ([1]; 10^9 erythrocytes, 40.0 mg/kg 1x i.p.): 32.8 ± 5.6% | % Foot swelling after immunization ([1]; 10^9 erythrocytes, 50.0 mg/kg 1x i.p.): 28.1 ± 4.1% | % Foot swelling after immunization ([1]; 10^9 erythrocytes, 100.0 mg/kg 1x i.p.): 26.6 ± 5.0% | dose at which the stimulant action (DTH reaction) reaches its optimum ([1]; i.p.): 25 mg/kg | Relative stimulation of the DTH reaction ([1]; single i.p. dose of 40 mg/kg, maximal stimulation by Example 34 = 100%): 100% | IC50 (aminopeptidase B): 99.1 µM | LD50 at 168 h (Acute toxicity): 200 to 300 mg/kg | change in vivo at 35 mg/kg (active Arthus reaction): -16%
